# From patent US20150126545A1, “COMPOSITIONS CONTAINING KINASE INHIBITORS” (AbbVie Inc., priority 2011, published 2015)
# Experiments:
# [1] = Solubility of free base in various media; type: physicochemical
# Description: Solubility of N-(4-{4-amino-7-[1-(2-hydroxyethyl)-1H-pyrazol-4-yl]thieno[3,2-c]pyridin-3-yl}phenyl)-N′-(3-fluorophenyl)urea Free Base in Various Media
# [2] = Solubility of free base in PEG-300/Cremophor EL/Ethanol vehicles; type: physicochemical
# Description: Solubility of N-(4-{4-amino-7-[1-(2-hydroxyethyl)-1H-pyrazol-4-yl]thieno[3,2-c]pyridin-3-yl}phenyl)-N′-(3-fluorophenyl)urea Free Base in PEG-300/Cremophor EL/Ethanol Vehicles
# [3] = Pharmacokinetics of IV formulation in humans (Phase I, advanced solid tumors); type: in vivo; conditions: human, plasma, IV infusion approx. 2 hour
# Description: IV formulations of the invention were used in an open-label Phase I human study evaluating the safety and pharmacokinetics of N-(4-{4-amino-7-[1-(2-hydroxyethyl)-1H-pyrazol-4-yl]thieno[3,2-c]pyridin-3-yl}phenyl)-N′-(3-fluorophenyl)urea as monotherapy in subjects with advanced solid tumors, i.e., mixture of polyethylene glycol 300, polyoxyl 35 castor oil, and ethanol in a ratio of 45:45:10% w/w, and N-(4-{4-amino-7-[1-(2-hydroxyethyl)-1H-pyrazol-4-yl]thieno[3,2-c]pyridin-3-yl}phenyl)-N′-(3-fluorophenyl)urea, wherein the N-(4-{4-amino-7-[1-(2-hydroxyethyl)-1H-pyrazol-4-yl]thieno[3,2-c]pyridin-3-yl}phenyl)-N′-(3-fluorophenyl)urea is present in a concentration of about 6 mg/mL.
# The number of subjects that entered the studies and completed at least a portion of the studies are noted. Subjects entered the study and were assigned to receive one of the following doses: 8 mg, 16 mg, or 32 mg.
# Doses were administered on Day 1 and Day 15 of each 28 day cycle with an approximately 2 hour infusion. On Day 1 and Day 15, plasma samples are collected at time 0 (prior to infusion), 1 h 55 min (just before the end of the infusion), and at 0.5, 1, 2, 4, 6, 8, 10, 24 hours post the end of infusion. The plasma concentrations of N-(4-{4-amino-7-[1-(2-hydroxyethyl)-1H-pyrazol-4-yl]thieno[3,2-c]pyridin-3-yl}phenyl)-N′-(3-fluorophenyl)urea were determined, and the values for the pharmacokinetic parameters were calculated and shown in Table 7.
# [4] = 8 mg, 8 mg, Study Day 1, mean ± SD, N 4
# [5] = 8 mg, 8 mg, Study Day 15, mean ± SD, N 4
# [6] = 16 mg, 16 mg, Study Day 15, N 1
# [7] = 32 mg, 32 mg, Study Day 1, mean, N 2
# [8] = 32 mg, 32 mg, Study Day 15, mean, N 2
structure (smiles),measurement,setting,value
"Nc1ncc(-c2cnn(CCO)c2)c2scc(-c3ccc(NC(=O)Nc4cccc(F)c4)cc3)c12 [API, N-(4-{4-amino-7-[1-(2-hydroxyethyl)-1H-pyrazol-4-yl]thieno[3,2-c]pyridin-3-yl}phenyl)-N′-(3-fluorophenyl)urea]",solubility,"[1]; 10% Cremophor EL in water, aqueous with cosolvent or surfactant or cyclodextrin, read-out: Solubility",106 µg/mL
same,solubility,"[1]; 10% Polysorbate 80 in water, aqueous with cosolvent or surfactant or cyclodextrin, read-out: Solubility",146 µg/mL
same,solubility,"[1]; 10% Solutol HS in water, aqueous with cosolvent or surfactant or cyclodextrin, read-out: Solubility",152 µg/mL
same,solubility,"[1]; Cremophor EL, organic solvent or mixture, Cremphor EL, read-out: Solubility",7100 µg/mL
same,solubility,"[1]; DMA, organic solvent or mixture, read-out: Solubility",35000 to 50000 µg/mL
same,solubility,"[1]; Ethanol, organic solvent or mixture, read-out: Solubility",130 µg/mL
same,solubility,"[1]; PEG 300, organic solvent or mixture, read-out: Solubility",20000 µg/mL
same,solubility,"[1]; PEG 400, organic solvent or mixture, read-out: Solubility",20900 µg/mL
same,solubility,"[1]; Polysorbate 80, organic solvent or mixture, read-out: Solubility",2500 µg/mL
same,solubility,"[1]; Propylene Glycol, organic solvent or mixture, read-out: Solubility",1200 µg/mL
same,solubility,"[1]; Water (across physiological pH range), read-out: Solubility",< 0.03 µg/mL
same,solubility,"[1]; water, pH 7.4, aqueous buffer, read-out: solubility in water",< 0.03 µg/mL
same,solubility,"[2]; PEG-300/Cremophor EL/Ethanol 42.5/42.5/15, organic solvent or mixture, PEG-300/Cremophor EL/Ethanol ratio 42.5/42.5/15, 5° C., read-out: Solubility (mg/mL) at 5° C.",11.9 mg/mL
same,solubility,"[2]; PEG-300/Cremophor EL/Ethanol 42.5/42.5/15, organic solvent or mixture, PEG-300/Cremophor EL/Ethanol ratio 42.5/42.5/15, RT, read-out: Solubility (mg/mL) at RT",10 mg/mL
same,solubility,"[2]; PEG-300/Cremophor EL/Ethanol 45/45/10, organic solvent or mixture, PEG-300/Cremophor EL/Ethanol ratio 45/45/10, 5° C., read-out: Solubility (mg/mL) at 5° C.",14.1 mg/mL
same,solubility,"[2]; PEG-300/Cremophor EL/Ethanol 45/45/10, organic solvent or mixture, PEG-300/Cremophor EL/Ethanol ratio 45/45/10, RT, read-out: Solubility (mg/mL) at RT",11.6 mg/mL
same,solubility,"[2]; PEG-300/Cremophor EL/Ethanol 47.5/47.5/5, organic solvent or mixture, PEG-300/Cremophor EL/Ethanol ratio 47.5/47.5/5, 5° C., read-out: Solubility (mg/mL) at 5° C.",16.4 mg/mL
same,solubility,"[2]; PEG-300/Cremophor EL/Ethanol 47.5/47.5/5, organic solvent or mixture, PEG-300/Cremophor EL/Ethanol ratio 47.5/47.5/5, RT, read-out: Solubility (mg/mL) at RT",13 mg/mL
same,half-life,"[3]; 8 mg, 8 mg, Study Day 1, harmonic mean ± pseudo SD, N 4",10.7 ± 8.3 h
same,AUC(0-inf),[3]; [4],2.96 ± 1.54 µg·h/mL
same,Cmax,[3]; [4],0.235 ± 0.0821 µg/mL
same,Tmax,[3]; [4],1.9 h
same,half-life,"[3]; 8 mg, 8 mg, Study Day 15, harmonic mean ± pseudo SD, N 4",14.1 ± 7.4 h
same,AUC(0-inf),[3]; [5],2.94 ± 1.63 µg·h/mL
same,Cmax,[3]; [5],0.246 ± 0.107 µg/mL
same,Tmax,[3]; [5],1.9 h
same,AUC(0-inf),"[3]; 16 mg, 16 mg, Study Day 1, N 1",2.35 µg·h/mL
same,Cmax,"[3]; 16 mg, 16 mg, Study Day 1, N 1",0.366 µg/mL
same,Tmax,"[3]; 16 mg, 16 mg, Study Day 1, N 1",2.5 h
same,half-life,"[3]; 16 mg, 16 mg, Study Day 1, N 1",9.8 h
same,AUC(0-inf),[3]; [6],3.69 µg·h/mL
same,Cmax,[3]; [6],0.736 µg/mL
same,Tmax,[3]; [6],1.9 h
same,half-life,[3]; [6],12.6 h
same,half-life,"[3]; 32 mg, 32 mg, Study Day 1, harmonic mean, N 2",8.9 h
same,AUC(0-inf),[3]; [7],8.73 µg·h/mL
same,Cmax,[3]; [7],1.31 µg/mL
same,Tmax,[3]; [7],1.9 h
same,half-life,"[3]; 32 mg, 32 mg, Study Day 15, harmonic mean, N 2",11.3 h
same,AUC(0-inf),[3]; [8],8.62 µg·h/mL
same,Cmax,[3]; [8],1.37 µg/mL
same,Tmax,[3]; [8],2.2 h
